Reference: ChEMBL document CHEMBL3608258, “Anti-influenza activities of polyphenols from the medicinal mushroom Phellinus baumii” (Bioorg Med Chem Lett, 2015)
Activity calls are given as the source filed them. The calls are words filed in the database; no cut-off is given here.

How the values were obtained:
[1] = molecular target: Neuraminidase (Influenza A virus) (UniProt B4URF0); assay: Ratio of hispidin IC50 to compound IC50 for recombinant Influenza A virus H1N1 neuraminidase
[2] = system: Influenza A virus; assay: Antiviral activity against Influenza A virus H1N1 infected in MDCK cells assessed as inhibition of virus-induced cytopathic effect by SRB assay; format: functional, organism-based
[3] = molecular target: Neuraminidase (Influenza A virus) (UniProt B4URF0); assay: Noncompetitive inhibition of recombinant Influenza A virus H1N1 neuraminidase using MU-NANA as substrate
[4] = molecular target: Neuraminidase (Influenza A virus) (UniProt B4URF0); assay: (§1) Inhibition of recombinant Influenza A virus H1N1 neuraminidase
[5] = molecular target: T1, Neuraminidase (Influenza A virus, UniProt B4URF0); assay: as §1
[6] = molecular target: Neuraminidase (Influenza A virus) (UniProt B4URF0); assay: (§2) Inhibition of recombinant Influenza A virus H5N1 neuraminidase
[7] = molecular target: T1, Neuraminidase; assay: as §2
[8] = molecular target: T1, Neuraminidase; assay: Inhibition of recombinant Influenza A virus H3N2 neuraminidase
[9] = Cytotoxicity against MDCK cells by SRB assay; format: cell-based, Canis lupus familiaris; conditions: dog
[10] = system: Influenza A virus; assay: Antiviral activity against Influenza A virus H1N1 infected in MDCK cells assessed as inhibition of virus-induced change in cell morphology at 10 ug/ml after 2 days by microscopic analysis; format: functional, organism-based
[11] = Therapeutic index, ratio of CC50 for MDCK cells to IC50 for Influenza A virus H1N1; format: cell-based; conditions: dog, read-out: Ratio CC50/IC50
[12] = Retention time of the compound; format: physicochemical
[13] = system: Influenza A virus; assay: Ratio of zanamivir IC50 to compound IC50 for Influenza A virus H1N1 infected in MDCK cells assessed as inhibition of virus-induced cytopathic effect by SRB assay; format: functional

Structure (SMILES)	Ratio IC50 [1]	IC50 [2] [µM]	Kiuc [3] [µM]	inhibition [4]	IC50 [5] [µM]	inhibition [6]	IC50 [7] [µM]	IC50 [8] [µM]	CC50 [9] [µM]	inhibition [10]	selectivity ratio [11]	Retention_time [12] [min]	Ratio IC50 [13]
CC1=CC(=O)[C@H](c2c(O)cc(/C=C/c3ccc(O)c(O)c3)oc2=O)[C@@H](c2ccc(O)c(O)c2)O1 [DAVALLIALACTONE]	3.6	42.8	27.6	Dose-dependent effect	14.2	Dose-dependent effect	21.8	21.1	680	Active	2.3	9	–
O=c1cc(O)cc(/C=C/c2ccc(O)c(O)c2)o1 [HISPIDIN]	–	57.9	43	Dose-dependent effect	50.9	Dose-dependent effect	16.9	45.2	> 100	Active	> 1.7	11.6	–
O=c1cc(O)cc([C@H]2c3c(cc(/C=C/c4ccc(O)c(O)c4)oc3=O)O[C@@H]2c2ccc(O)c(O)c2)o1 [HYPHOLOMINE B]	2.2	72.8	20.9	Dose-dependent effect	22.9	Dose-dependent effect	12.3	14.6	> 100	Active	> 1.4	14.5	–
CC1=CC(=O)C2(O1)c1c(cc(/C=C/c3ccc(O)c(O)c3)oc1=O)OC2c1ccc(O)c(O)c1 (configuration not stated) [INOSCAVIN A]	2.5	22.6	24.5	Dose-dependent effect	20	Dose-dependent effect	18.5	18.5	433	Active	4.4	14.9	2.9
O=c1oc2cc(/C=C/c3ccc(O)c(O)c3)oc(=O)c2c2cc(O)c(O)cc12 [PHELLIGRIDIN D]	5.8	24.6	15.9	Dose-dependent effect	8.8	Dose-dependent effect	10.9	10.3	> 100	Active	> 4.1	18.8	–
CC(=O)N[C@H]1[C@H]([C@H](O)[C@H](O)CO)OC(C(=O)O)=C[C@@H]1NC(=N)N [ZANAMIVIR]	–	0.0647	–	–	–	–	–	–	–	Active	–	–	–
